Where two headings read alike, the source gives them in different places.

Consider 29 compounds from patent publication US20070259837A1, “Use of Non-Glucocorticoid Steroids for the Treatment of Muscular Dystrophy” (SANTHERA PHARMACEUTICALS (SCHWEIZ) AG, priority 2004, published 2007).

Test [1] has as its system utrophin protein in human muscle cells derived from DMD patients. The test is described as follows: Cell-based ELISA for normalized utrophin protein level in primary human myotube cultures. The following applies: for % UTR vs. PDN (normalized utrophin protein as % of PDN-treated sister cultures): same experiment; for activity at 0.5 µM: Myotube, read-out: % UTR vs. DMSO (normalized utrophin protein over DMSO-solvent treated control). How it is done: The method used to detect and determine utrophin-inducing activity of non-glucocorticoid steroids has been described previously (Courdier-Fruh, I., Barman, L., Briguet, A. & Meier, T.; 2002, Neuromuscul. Disord.; 12 Suppl:S95). Briefly, primary human muscle cell cultures were prepared according to standard protocols (Askanas V, Kwan H, Alvarez R B, Engel W K, Kobayashi T, Martinuzzi A, Hawkins E F., 1987, J Neurocytol., 16:523-537). Test compounds and the glucocorticoid 6α-methylprednisolone-21 sodium succinate (Pharmacia & Upjohn; Solu-Medrol®, PDN) as reference compound were applied at 500 nM final concentration as soon as myoblasts started to differentiate into myotubes. Incubation with the test compound was ended as soon as well differentiated myotubes have formed, typically resulting in an incubation time with a test compound for 3-7 days.
Normalized concentrations of utrophin protein in human muscle cells cultured in microtiter plates were determined by a cell-based enzyme-linked immunosorbent assay (ELISA) procedure that allows a successive readout for the cell density and utrophin protein level. For calibration, the cell density and differentiation was determined by absorbance measurements of the total dehydrogenase enzyme activity in each well using the colorimetric CellTiter 96®AQ One Solution Reagent Proliferation Assay (Promega) according to the manufacturer's recommendation. Subsequently, cells were fixed, washed, permeabilized with 0.5% (v/v) Triton X-100 and unspecific antibody binding-sites were blocked by standard procedures. Utrophin protein levels were determined immunologically with utrophin-specific primary antibodies (mouse monoclonal antibody to the amino terminal portion of utrophin, NCL-DRP2, Novocastra Laboratories) and with appropriate peroxidase-coupled secondary antibodies using QuantaBlu™ Fluorogenic Peroxidase Substrate Kit (Pierce) for detection. Fluorescence measurements were carried out with a multilabel counter (Wallac) at λex=325 nm and at λem=420 nm. The primary readout of this signal is presented in arbitrary units. For calibration, the arbitrary units representing the relative utrophin protein content of each well were divided by the corresponding cell-titer absorbance value to correct for cell density. For comparison between experiments, the cell-titer corrected readout for utrophin protein content in each well was expressed in percent of solvent treated control cultures (set to 100%). PDN was included in all experiments as reference glucocorticoid, N=3-5 for each compound tested.
Non-glucocorticoid test compounds, applied in a concentration of 500 nM, were regarded as “positive” in case the increase in the level of utrophin protein was at least 20% (mean value) over control cultures treated with the appropriate dilution of DMSO solvent as control and containing no test compound.
A range of different pharmaceutical compounds were tested for their ability to increase levels of utrophin protein in primary human myotube cultures. The cell-based ELISA protocol used to detect the level of utrophin protein is provided above and described in Courdier-Fruh, I., Barman, L., Briguet, A. & Meier, T, 2002, Neuromuscul. Disord.: 12, Suppl:S95. Briefly, fixed and permeabilized human muscle cells derived from DMD patients and cultured in 96-well cell culture plates were incubated with antibodies specific for utrophin at a dilution of 1:1'000 in blocking solution (phosphate buffered saline (PBS) supplemented with 2% fetal calf serum and 1% bovine serum albumin) for 10-15 hours at 4° C. Following several washing steps with 0.1% Triton X-100 in PBS, peroxidase-coupled secondary antibodies diluted 1:3'000 in blocking solution were applied in each well for 1-2 hours at room temperature. Signal detection, data acquisition and normalization was performed as described above and in Courdier-Fruh, I., Barman, L., Briguet, A. & Meier, T, 2002, Neuromuscul. Disord.: 12, Suppl:S95. […]
Background: ELISA stands for enzyme-linked immunosorbent assay.

Test [2] shares this test system. Particulars: cited from earlier work; for increase of utrophin protein content in human muscle cells (reported for glucocorticoids): Courdier-Fruh et al. 2002.
[3] abbreviates: 500 nM compound, human muscle cultures, mean value, N=3-6.

Take `CC(=O)OCC(=O)[C@@]1(O)CCC2C3CCC4=CC(=O)CC[C@]4(C)C3CC[C@@]21C` (stereo partly drawn) [Example 63, Cortexolone 21-acetate]: the “% UTR vs. PDN (normalized utrophin protein as % of PDN-treated sister cultures)” value in test [1] (setting [3]) was determined as 99%. Also, in test [1] (Homo sapiens), the activity at 0.5 µM is 129%.
Taken in the same sequence, the figures for `CC(=O)C1CCC2C3C[C@@H]4O[C@@]45C[C@@H](O)CC[C@]5(C)C3CC[C@]12C` (stereo partly drawn) [Example 64] were 97% and 127%.
Taken in the same sequence, the figures for `CC(=O)C1CCC2C3CC[C@H]4C[C@H](O)CC[C@]4(C)C3C[C@H](O)[C@]12C` (stereo partly drawn) [Example 65] were 97% and 121%.
With `CC(=O)[C@@]1(O)CCC2C3CCC4=CC(=O)CC[C@]4(C)C3CC[C@@]21C` (stereo partly drawn) [Example 66], in test [1] (setting [3]), the “% UTR vs. PDN (normalized utrophin protein as % of PDN-treated sister cultures)” value is recorded as 97% and the activity at 0.5 µM was 127%.
For `CC(=O)OCC(=O)[C@H]1CCC2C3CCC4=CC(=O)CC[C@]4(C)C3CC[C@@]21C` (stereo partly drawn) [Example 67], in that order: 96% and 120%.
Turning to `CC(=O)OCC(=O)[C@@]12O[C@@H]1CC1C3CC[C@@H]4C[C@H](O)CC[C@]4(C)C3CC[C@@]12C` (stereo partly drawn) [Example 68], in test [1] (setting [3]), the “% UTR vs. PDN (normalized utrophin protein as % of PDN-treated sister cultures)” value was determined as 95%. For the same compound, the activity at 0.5 µM in test [1] (Homo sapiens) amounted to 125%.
For `C[C@]12C[C@H](O)C3C(CC[C@@H]4C[C@H](O)CC[C@]34C)C1CCC2C(=O)CO` (stereo partly drawn) [Example 69], in that order: 95% and 123%.
As for `C[C@]12CC(=O)C3C(CC[C@@H]4C[C@H](O)CC[C@]34C)C1CC[C@]2(O)C1(CO)OCCO1` (stereo partly drawn) [Example 70], in test [1] (setting [3]), the “% UTR vs. PDN (normalized utrophin protein as % of PDN-treated sister cultures)” value amounted to 94%. The activity at 0.5 µM in test [1] (Homo sapiens) was 122%.
As to `C[C@]12CCC3c4ccc(O)cc4CCC3C1CC[C@@H]2O` (stereo partly drawn) [Example 71, Estradiol], in test [1] (setting [3]), the “% UTR vs. PDN (normalized utrophin protein as % of PDN-treated sister cultures)” value worked out at 105% and the activity at 0.5 µM came to 136%.
On to `C[C@]12CCC3c4ccc(OCc5ccccc5)cc4CCC3C1C[C@@H](O)[C@@H]2O` (stereo partly drawn) [Example 72], for which, in test [1] (setting [3]), the “% UTR vs. PDN (normalized utrophin protein as % of PDN-treated sister cultures)” value turned out to be 105%. The activity at 0.5 µM in test [1] (Homo sapiens) was determined as 132%.
`C[C@]12CCC3c4ccc(OC(=O)c5ccccc5)cc4CCC3C1CC[C@@H]2O` (stereo partly drawn) [Example 73]: in test [1] (setting [3]), the “% UTR vs. PDN (normalized utrophin protein as % of PDN-treated sister cultures)” value is on record as 105% and the activity at 0.5 µM is 132%.
On to `C[C@]12CCC3c4ccc(OC(=O)c5ccccc5)cc4CCC3C1CCC2=O` (stereo partly drawn) [Example 74], for which the “% UTR vs. PDN (normalized utrophin protein as % of PDN-treated sister cultures)” value in test [1] (setting [3]) came out at 103%. The activity at 0.5 µM in test [1] (Homo sapiens) came out at 124%.
For `CCC(=O)Oc1ccc2c(c1)CCC1C2CC[C@@]2(C)C1C[C@@H](OC(=O)CC)[C@@H]2OC(=O)CC` (stereo partly drawn) [Example 75], in that order: 102% and 131%.
For `CC(=O)Oc1ccc2c(c1)CCC1C2CC[C@]2(C)C(=O)CCC12` (stereo partly drawn) [Example 76, Estrone acetate], in that order: 102% and 129%.
`CC(=O)O[C@H]1CCC2C3CCc4cc(O)ccc4C3CC[C@@]21C` (stereo partly drawn) [Example 77]: the “% UTR vs. PDN (normalized utrophin protein as % of PDN-treated sister cultures)” value in test [1] (setting [3]) is given as 102%. Moreover, the activity at 0.5 µM in test [1] (Homo sapiens) was found to be 128%.
Taken in the same sequence, the figures for `C[C@]12CCC3c4ccc(OC(=O)c5ccccc5)cc4CCC3C1C[C@@H](O)[C@@H]2O` (stereo partly drawn) [Example 78] were 99% and 124%.
Consider `COc1ccc2c(c1)CCC1C2CC[C@@]2(C)C1CC[C@]2(C)O` (stereo partly drawn) [Example 79], for which the “% UTR vs. PDN (normalized utrophin protein as % of PDN-treated sister cultures)” value in test [1] (setting [3]) came to 98%. In test [1] (Homo sapiens), the activity at 0.5 µM was determined as 126%.
In the case of `C[C@]12CCC3c4ccc(O)cc4C=CC3C1CCC2=O` (stereo partly drawn) [Example 80], in test [1] (setting [3]), the “% UTR vs. PDN (normalized utrophin protein as % of PDN-treated sister cultures)” value was determined as 96% and the activity at 0.5 µM is 125%.
Take `C[C@]12C(=CCC1C1=CC(=O)OC1)C1CC[C@@H]3C[C@@H](O)CC[C@]3(C)C1C[C@H]2O` (stereo partly drawn) [Example 81]: the “% UTR vs. PDN (normalized utrophin protein as % of PDN-treated sister cultures)” value in test [1] (setting [3]) was 103%. The activity at 0.5 µM in test [1] (Homo sapiens) came out at 129%.
`C[C@]12CCC3C(CC[C@]4(O)C[C@@H](O)CC[C@]34C=O)[C@@]1(O)CCC2C1=CC(=O)OC1` (stereo partly drawn) [Example 82]: in test [1] (setting [3]), the “% UTR vs. PDN (normalized utrophin protein as % of PDN-treated sister cultures)” value was found to be 101%. Further, the activity at 0.5 µM in test [1] (Homo sapiens) came out at 122%.
For `CC(=O)O[C@@H]1C[C@]2(C)C(C3=CC(=O)OC3)CC[C@]2(O)C2CC[C@@H]3C[C@@H](O)CC[C@]3(C)C21` (stereo partly drawn) [Example 83], in that order: 99% and 121%.
With `C[C@]12CCC(=O)C[C@H]1CCC1C2C(=O)C[C@]2(C)C(C3=CC(=O)OC3)CC[C@]12O` (stereo partly drawn) [Example 84], the “% UTR vs. PDN (normalized utrophin protein as % of PDN-treated sister cultures)” value in test [1] (setting [3]) turned out to be 98%. Moreover, the activity at 0.5 µM in test [1] (Homo sapiens) came out at 123%.
As to `C[C@]12C[C@@H](O)C3C(CC[C@@H]4C[C@@H](O)CC[C@]34C)C1=CCC2C1=CC(=O)OC1` (stereo partly drawn) [Example 85], in test [1] (setting [3]), the “% UTR vs. PDN (normalized utrophin protein as % of PDN-treated sister cultures)” value was determined as 99%. Moreover, in test [1] (Homo sapiens), the activity at 0.5 µM turned out to be 120%.
Consider `C[C@H]1C[C@@H]2[C@H]([C@@H](O)C[C@@]3(C)[C@H]2CC[C@]3(O)C(=O)COC(=O)CCC(=O)[O-])[C@@]2(C)C=CC(=O)C=C12.[Na+]` [PDN, 6α-methylprednisolone-21 sodium succinate, reference compound], for which the “utrophin protein levels normalized to cell density (UTR, relative units) compared to solvent-treated control (DMSO)” value in test [1] (human DMD-patient derived muscle cells, 500 nM, FIG. 1 / FIG. 2, N=5-6) is “up to 200%”. The “inhibition of PDN-mediated utrophin increase by RU38486” value in test [2] (simultaneous exposure to RU38468, previous experiments (Courdier-Fruh 2002)) was “could be inhibited”.
On to `C[C@@H]1C[C@H]2[C@@H]3CCC4=CC(=O)C=C[C@]4(C)[C@@]3(F)[C@@H](O)C[C@]2(C)[C@@]1(O)C(=O)CO` [dexametasone], for which the “increase of utrophin protein content in human muscle cells (reported for glucocorticoids)” value (“increase … (reported for glucocorticoids)” below) in test [2] is listed as “increase of utrophin protein content”.
Take `CC1(C)O[C@@H]2C[C@H]3[C@@H]4C[C@H](F)C5=CC(=O)C=C[C@]5(C)[C@@]4(F)[C@@H](O)C[C@]3(C)[C@]2(C(=O)CO)O1` [fluocinolone acetonide]: in test [2], the “increase … (reported for glucocorticoids)” value is listed as “increase of utrophin protein content”.
As to `CC1(C)O[C@@H]2C[C@H]3[C@@H]4CCC5=CC(=O)CC[C@]5(C)[C@@]4(F)[C@@H](O)C[C@]3(C)[C@]2(C(=O)CCl)O1` [halcinonide], the “increase … (reported for glucocorticoids)” value in test [2] is “increase of utrophin protein content”.
As for `C[C@H]1C[C@@H]2[C@H]([C@@H](O)C[C@@]3(C)[C@H]2CC[C@]3(O)C(=O)CO)[C@@]2(C)C=CC(=O)C=C12` [α-methylprednisolone], in test [2], the “increase … (reported for glucocorticoids)” value is reported as “increase of utrophin protein content”.
Norethisterone [Example 40]: in test [1] (setting [3]), the “% UTR vs. DMSO (normalized utrophin protein over DMSO-solvent treated control)” value is 134% and the “% UTR vs. PDN (normalized utrophin protein as % of PDN-treated sister cultures)” value was 106%.
